14 molecules from PubChem BioAssay AID330 (DTP/NCI, 2004) can be followed below.

Where “and” joins values, the source holds several entries; their conditions need not be identical. Identical values can stand only once. Inconclusive results and toxic doses are left out.

The assay has as its system P388 leukemia ip, CD2F1 mice, survival T/C. The assay can be described thus: NCI In Vivo Anticancer Drug Screen. Data for tumor model P388 Leukemia (intraperitoneal) in CD2F1 (CDF1) mice. To be noted: endpoint: median survival time, higher = longer survival. The essentials: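 Mice carrying the transplanted tumor received test compound or vehicle. Survival was recorded in each group, and the value is the treated-group measurement divided by that of the vehicle-treated control group.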

The mark [1] stands for this setting: dose: 50.0 mg/kg/injection, schedule: Q01DX005 (ip), vehicle: Klucel (hydroxypropylcellulose) (HPC).
[2] abbreviates: dose: 100.0 mg/kg/injection, schedule: Q01DX005 (ip), vehicle: Klucel (hydroxypropylcellulose) (HPC).
Where [3] appears, read: dose: 200.0 mg/kg/injection, schedule: Q01DX005 (ip), vehicle: Klucel (hydroxypropylcellulose) (HPC).
[4] abbreviates: dose: 100.0 mg/kg/injection, schedule: Q01DX001 (ip), vehicle: Klucel (hydroxypropylcellulose) (HPC).

For the molecule `C[n+]1c(-c2cccc(-c3ccccc3)c2)c2cc([N+](=O)[O-])ccc2c2ccccc21`, the T/C was 103 % of control (dose: 1.56 mg/kg/injection, schedule: Q01DX009 (ip), vehicle: Klucel (hydroxypropylcellulose) (HPC)); 103 % of control (dose: 3.13 mg/kg/injection, schedule: Q01DX009 (ip), vehicle: Klucel (hydroxypropylcellulose) (HPC)); 106 % of control (dose: 6.25 mg/kg/injection, schedule: Q01DX009 (ip), vehicle: Klucel (hydroxypropylcellulose) (HPC)); 111 % of control (dose: 12.5 mg/kg/injection, schedule: Q01DX009 (ip), vehicle: Klucel (hydroxypropylcellulose) (HPC)); 109 % of control (dose: 25.0 mg/kg/injection, schedule: Q01DX009 (ip), vehicle: Klucel (hydroxypropylcellulose) (HPC)).

In the case of `Nc1ncc[nH]c1=O`, the T/C (dose: 50.0 mg/kg/injection, schedule: Q01DX009 (ip), vehicle: saline) is 100 % of control and the T/C (dose: 100.0 mg/kg/injection, schedule: Q01DX009 (ip), vehicle: saline) was 97 % of control.

For `COC(=O)[C@]1(C)CCC[C@@]2(C)[C@@H]3C[C@@H]4[C@H]5C[C@@]3(CC[C@@H]21)C[C@@]45C`, the T/C runs as follows: (dose: 25.0 mg/kg/injection, schedule: Q01DX005 (ip), vehicle: Klucel (hydroxypropylcellulose) (HPC)) 100 % of control; under setting [1], 97 % of control; under setting [2], 97 % of control; under setting [3], 95 % of control.

Take `O=C1c2ccccc2C(=O)C1(Br)C(Cl)c1ccccc1` (stereo unspecified): the T/C was 90 % of control (dose: 50.0 mg/kg/injection, schedule: Q01DX009 (ip), vehicle: Klucel (hydroxypropylcellulose) (HPC)); 95 % of control (dose: 100.0 mg/kg/injection, schedule: Q01DX009 (ip), vehicle: Klucel (hydroxypropylcellulose) (HPC)); 104 % of control (dose: 100.0 mg/kg/injection, schedule: Q04DX003 (ip), vehicle: Klucel (hydroxypropylcellulose) (HPC)); 100 % of control (dose: 200.0 mg/kg/injection, schedule: Q04DX003 (ip), vehicle: Klucel (hydroxypropylcellulose) (HPC)).

For `CC(C)(C)Nc1nc2ccccc2c(=O)o1`, the T/C is, setting by setting: (dose: 100.0 mg/kg/injection, schedule: Q01DX001 (ip), vehicle: saline with Tween-80) 101 % of control; (dose: 200.0 mg/kg/injection, schedule: Q01DX001 (ip), vehicle: saline with Tween-80) 106 % of control; (dose: 400.0 mg/kg/injection, schedule: Q01DX001 (ip), vehicle: saline with Tween-80) 116 % of control.

On to `CC1=Nc2ccccc2NC2(C1)C(C1COC(C)(C)O1)OC1OC(C)(C)OC12` (stereo unspecified), for which the T/C reads like this: (dose: 50.0 mg/kg/injection, schedule: Q01DX005 (ip), vehicle: saline with Tween-80) 95 % of control; (dose: 100.0 mg/kg/injection, schedule: Q01DX005 (ip), vehicle: saline with Tween-80) 99 % of control; (dose: 200.0 mg/kg/injection, schedule: Q01DX005 (ip), vehicle: saline with Tween-80) 100 % of control.

`CCOc1nc2ccc(NC(C)C(=O)N3CCN(CCc4ccccc4)CC3)cc2s1` (stereo unspecified): the T/C is 100 % of control under setting [1], 100 % of control under setting [2] and 112 % of control under setting [3].

With `Cc1cccc(-c2nc3c(C)nc(-c4ccccc4)nc3n2Nc2ccccc2)c1`, under setting [4], the T/C was 87 % of control.

For the molecule `COc1c(O)c2c(c3cc(C(=O)N4CCc5c4c(O)c(OC)c4[nH]c(C(=O)N6CC7CC78C6=CC(=O)c6[nH]cc(C)c68)cc54)[nH]c13)CCN2C(N)=O` (stereo unspecified), the T/C (dose: 0.01 mg/kg/injection, schedule: Q04DX003 (ip), vehicle: other) is 190 % of control; the T/C (dose: 0.03 mg/kg/injection, schedule: Q04DX003 (ip), vehicle: other) is 190 % of control and 211 % of control; the T/C (dose: 0.04 mg/kg/injection, schedule: Q04DX003 (ip), vehicle: DMSO) is 150 % of control; the T/C (dose: 0.1 mg/kg/injection, schedule: Q04DX003 (ip), vehicle: DMSO) is 166 % of control; the T/C (dose: 0.1 mg/kg/injection, schedule: Q04DX003 (ip), vehicle: other) is 118 % of control and 98 % of control; the T/C (dose: 2.6 micrograms/kg/injection, schedule: Q01DX009 (ip), vehicle: other) was 120 % of control. In addition, the T/C (dose: 4.0 micrograms/kg/injection, schedule: Q01DX009 (ip), vehicle: other) is 119 % of control; the T/C (dose: 10.0 micrograms/kg/injection, schedule: Q04DX003 (ip), vehicle: other) was 163 % of control; the T/C (dose: 13.0 micrograms/kg/injection, schedule: Q01DX009 (ip), vehicle: DMSO) was 94 % of control; the T/C (dose: 13.0 micrograms/kg/injection, schedule: Q04DX003 (ip), vehicle: other) is 124 % of control; the T/C (dose: 20.0 micrograms/kg/injection, schedule: Q04DX003 (ip), vehicle: other) is 120 % of control; the T/C (dose: 21.6 micrograms/kg/injection, schedule: Q01DX009 (ip), vehicle: DMSO) was 95 % of control. Further, the T/C runs as follows: (dose: 30.0 micrograms/kg/injection, schedule: Q04DX003 (ip), vehicle: other) 181 % of control; (dose: 36.0 micrograms/kg/injection, schedule: Q01DX009 (ip), vehicle: DMSO) 98 % of control; (dose: 60.0 micrograms/kg/injection, schedule: Q01DX009 (ip), vehicle: DMSO) 93 % of control; (dose: 64.8 micrograms/kg/injection, schedule: Q04DX003 (ip), vehicle: DMSO) 153 % of control; (dose: 64.8 micrograms/kg/injection, schedule: Q04DX003 (ip), vehicle: saline) 156 % of control; (dose: 88.5 micrograms/kg/injection, schedule: Q01DX001 (ip), vehicle: other) 153 % of control. Further, the T/C is, setting by setting: (dose: 100.0 micrograms/kg/injection, schedule: Q01DX009 (ip), vehicle: DMSO) 95 % of control; (dose: 100.0 micrograms/kg/injection, schedule: Q04DX003 (ip), vehicle: other) 93 % of control; (dose: 108.0 micrograms/kg/injection, schedule: Q04DX003 (ip), vehicle: DMSO) 161 % of control; (dose: 133.0 micrograms/kg/injection, schedule: Q01DX001 (ip), vehicle: other) 155 % of control; (dose: 180.0 micrograms/kg/injection, schedule: Q04DX003 (ip), vehicle: DMSO) 170 % of control; (dose: 200.0 micrograms/kg/injection, schedule: Q01DX001 (ip), vehicle: other) 162 % of control. Moreover, the T/C was 105 % of control (dose: 300.0 micrograms/kg/injection, schedule: Q04DX003 (ip), vehicle: saline) and 157 % of control (dose: 450.0 micrograms/kg/injection, schedule: Q01DX001 (ip), vehicle: other).

Turning to `CCCCCCCC[N+](C)(C)CCSCC[N+](C)(C)CCCCCCCC`, the T/C is, setting by setting: (dose: 3.13 mg/kg/injection, schedule: Q01DX009 (ip), vehicle: saline with Tween-80) 99 % of control; (dose: 6.25 mg/kg/injection, schedule: Q01DX009 (ip), vehicle: saline with Tween-80) 96 % of control; (dose: 12.5 mg/kg/injection, schedule: Q01DX009 (ip), vehicle: saline with Tween-80) 114 % of control.

Turning to `O=C1c2ccccc2-c2c1nc1ccccc1[n+]2[O-]`, the T/C was 102 % of control (dose: 6.25 mg/kg/injection, schedule: Q01DX005 (ip), vehicle: saline); 103 % of control (dose: 12.5 mg/kg/injection, schedule: Q01DX005 (ip), vehicle: saline); 96 % of control (dose: 25.0 mg/kg/injection, schedule: Q01DX005 (ip), vehicle: saline).

Consider `CN(C)c1ccc(C(=O)C2(Cl)CCCC(C)(C)C2)cc1` (stereo unspecified), for which the T/C is, setting by setting: (dose: 100.0 mg/kg/injection, schedule: Q04DX002 (ip), vehicle: Klucel (hydroxypropylcellulose) (HPC)) 102 % of control; (dose: 200.0 mg/kg/injection, schedule: Q04DX002 (ip), vehicle: Klucel (hydroxypropylcellulose) (HPC)) 99 % of control; (dose: 400.0 mg/kg/injection, schedule: Q04DX002 (ip), vehicle: Klucel (hydroxypropylcellulose) (HPC)) 94 % of control.

In the case of `CCOc1ccc(-n2c(-c3ccc(F)cc3)c(N=Nc3ccccc3)sc2=N)cc1`, the T/C is 96 % of control (dose: 60.0 mg/kg/injection, schedule: Q01DX005 (ip), vehicle: Klucel (hydroxypropylcellulose) (HPC)); 102 % of control (dose: 120.0 mg/kg/injection, schedule: Q01DX005 (ip), vehicle: Klucel (hydroxypropylcellulose) (HPC)); 108 % of control (dose: 240.0 mg/kg/injection, schedule: Q01DX005 (ip), vehicle: Klucel (hydroxypropylcellulose) (HPC)).

For `C1CC2CC1C13OC1C1(CC1)C1OC213` (stereo unspecified), the T/C under setting [4] was 106 % of control and 123 % of control; the T/C (dose: 200.0 mg/kg/injection, schedule: Q01DX001 (ip), vehicle: Klucel (hydroxypropylcellulose) (HPC)) was 109 % of control; the T/C (dose: 400.0 mg/kg/injection, schedule: Q01DX001 (ip), vehicle: Klucel (hydroxypropylcellulose) (HPC)) was 157 % of control.
